Measurements: PMC12405493, “Selective ubiquitination of drug-like small molecules by the ubiquitin ligase HUWE1” (Nature Communications, 2025)

What was measured:
[1] = system: HECT domains of E6AP (UBE3A), HACE1, NEDD4, and UBE3C; test: Analytical SEC of compound ubiquitination by other HECT domains; assay type: biochemical, human
[2] = molecular target: T1, HUWE1-HECT-Ub vinylthioether-linked conjugate (Homo sapiens, UniProt Q7Z6Z7); test: HDX-MS of HUWE1^HECT~Ub proxy with inhibitors; assay type: binding; conditions: 10-fold molar excess of inhibitor
T1 construct: The preparation of the vinylthioether-linked HUWE1^HECT-Ub complex was also previously described; made in house; host or cells: bacteria (components)
Method: (§1) Two experiments were performed: 50 μM HUWE1^HECT (1) or HUWE1^HECT-Ub conjugate (2) were incubated with 500 μM of BI8626 or BI8622 for 1 h on ice prior HDX-MS. Individual HDX reactions were generated with a 2-arm autosampler (LEAP Technologies) by mixing 6.5 μL sample with 58.5 μL of HDX buffer (20 mM HEPES pH 8.0, 150 mM NaCl, 5 mM DTT) prepared with 99.9% D2O, incubation at 25 °C for various times, before quenching by mixing 55 μL with an equal volume of 400 mM KH2PO4/H3PO4 (pH 2.2) and 2 M guanidine-HCl (precooled at 1 °C). Non-deuterated samples were generated analogously by 10-fold dilution with H2O-based buffer. […] For each protein state and time-point, three individual HDX reactions were measured.
(§2) Peptide identification and HDX analysis was performed with ProteinLynx Global SERVER v.3.0.1 (PLGS; Waters) and DynamX v.3.0 (Waters), as described previously. […] Only peptides with an intensity >10,000 counts, ≤ 30 residues, ≥ 2 products with ≥ 0.05 products/residue, ≤ 25 ppm mass error and retention time tolerance of 0.5 min were analysed. […] The maximal deuterium uptake of a given peptide was calculated by the number of residues minus one for the N-terminal residue and minus the number of prolines. […]

HUWE1^HECT = molecular target: T2, HUWE1^HECT (Homo sapiens, UniProt Q7Z6Z7); test: HDX-MS of HUWE1^HECT with inhibitors; assay type: binding; conditions: 10-fold molar excess of inhibitor
T2 construct: the isolated HECT domain of HUWE1 (HUWE1^HECT); made in house
T2 sequence (Q7Z6Z7 4038-4374 limits assumed): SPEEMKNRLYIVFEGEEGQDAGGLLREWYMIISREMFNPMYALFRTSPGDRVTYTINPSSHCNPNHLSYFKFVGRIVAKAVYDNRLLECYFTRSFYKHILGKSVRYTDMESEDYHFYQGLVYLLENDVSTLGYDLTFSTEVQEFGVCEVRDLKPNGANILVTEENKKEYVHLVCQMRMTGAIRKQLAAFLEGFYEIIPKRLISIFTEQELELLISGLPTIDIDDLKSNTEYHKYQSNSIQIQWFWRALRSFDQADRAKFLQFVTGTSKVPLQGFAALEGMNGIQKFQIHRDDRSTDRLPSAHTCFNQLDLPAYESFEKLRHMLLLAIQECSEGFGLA
Method: as §1, §2

[3] = system: HUWE1 substrates, such as MCL1; parameters: method as in PMID 25253726; conditions: MCL1 upon DNA damage induction; cited from earlier work
[4] = parameters: method as in PMID 25253726; conditions: cited from earlier work
UBA1 (E1) / UBE2L3 (E2) = molecular target: T3, UBA1 (E1) / UBE2L3 (E2) (Homo sapiens, UniProt P22314+P68036); test: E1-driven Ub transfer to UBE2L3 (E3-free reaction); assay type: biochemical; conditions: Supplementary Fig. 1f, g
T3 construct: made in house
T3 sequence (P22314 whole entry): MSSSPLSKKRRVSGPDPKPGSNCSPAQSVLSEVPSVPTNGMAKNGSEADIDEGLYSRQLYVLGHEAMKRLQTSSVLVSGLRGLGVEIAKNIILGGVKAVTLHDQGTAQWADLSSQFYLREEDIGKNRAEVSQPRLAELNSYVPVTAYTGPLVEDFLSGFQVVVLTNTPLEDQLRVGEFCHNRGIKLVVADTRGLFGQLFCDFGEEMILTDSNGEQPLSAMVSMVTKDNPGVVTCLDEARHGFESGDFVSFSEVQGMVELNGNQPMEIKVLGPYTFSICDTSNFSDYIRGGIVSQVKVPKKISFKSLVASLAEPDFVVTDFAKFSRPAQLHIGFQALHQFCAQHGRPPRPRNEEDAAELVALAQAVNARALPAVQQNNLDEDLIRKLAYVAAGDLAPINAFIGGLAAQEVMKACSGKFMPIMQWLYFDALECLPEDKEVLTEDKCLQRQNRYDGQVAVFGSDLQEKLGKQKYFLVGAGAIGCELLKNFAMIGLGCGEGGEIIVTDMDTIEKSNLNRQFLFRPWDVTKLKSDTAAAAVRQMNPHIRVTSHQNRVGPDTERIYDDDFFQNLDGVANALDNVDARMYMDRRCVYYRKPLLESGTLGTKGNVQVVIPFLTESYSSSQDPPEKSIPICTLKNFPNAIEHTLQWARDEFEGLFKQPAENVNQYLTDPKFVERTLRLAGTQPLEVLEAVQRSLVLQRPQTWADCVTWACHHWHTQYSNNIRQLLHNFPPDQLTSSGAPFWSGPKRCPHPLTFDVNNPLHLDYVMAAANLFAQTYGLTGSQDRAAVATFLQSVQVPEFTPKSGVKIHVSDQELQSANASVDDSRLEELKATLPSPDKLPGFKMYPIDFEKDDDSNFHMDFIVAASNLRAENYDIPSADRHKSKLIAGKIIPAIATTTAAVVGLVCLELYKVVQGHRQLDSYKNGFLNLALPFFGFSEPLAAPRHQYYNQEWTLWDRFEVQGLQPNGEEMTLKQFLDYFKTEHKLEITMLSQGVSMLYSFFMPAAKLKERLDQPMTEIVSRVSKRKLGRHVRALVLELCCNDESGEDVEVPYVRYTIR
T3 sequence (P68036 whole entry): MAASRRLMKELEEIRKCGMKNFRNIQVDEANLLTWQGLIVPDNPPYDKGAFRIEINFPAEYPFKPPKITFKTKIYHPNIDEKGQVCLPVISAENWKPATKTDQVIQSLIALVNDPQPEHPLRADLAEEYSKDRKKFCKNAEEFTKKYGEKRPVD
Method: E3-free multi-turnover ubiquitination reactions to monitor E1 and E2 activities contained 1 μM UBA1, 5 μM UBE2L3, 100 μM Ub, 2 mM ATP and 10 mM MgCl2 in 25 mM HEPES (pH 7.4), and 0.2 mM TCEP. Reactions were incubated at 30 °C for 10 min (or otherwise, as specified) and quenched with 50 mM EDTA, followed by the addition of SDS-loading dye. Single-turnover E2~Ub discharge assays were performed similarly to previous studies. In short, 1 μM UBA1, 5 μM UBE2L3, and 100 μM Ub were pre-incubated with 2 mM ATP and 10 mM MgCl2 in 25 mM HEPES (pH 7.4) at 30 °C for 30 min, diluted 4-fold, and quenched with 50 mM EDTA. Thereafter, 1.2 μM of the UBE2L3~Ub product was incubated with 5 μM HUWE1^HECT at 30 °C for 1 min.

Compound | Compound ubiquitination by other HECT domains [1] | Binding to HUWE1^HECT~Ub proxy by HDX-MS [2] | Binding to HUWE1^HECT by HDX-MS (HUWE1^HECT) | Stabilization of HUWE1 substrates [3] | Pharmacokinetic properties [4] | Ub transfer from the E1 to the E2 (UBA1 (E1) / UBE2L3 (E2))
Cc1c(C(=O)Nc2ccc(CN)cc2)ncnc1N1CCC(C#N)(c2ccccc2)CC1 [BI8622] | certain compound-directed activities were detected for all tested HECT domains | did not provide evidence of binding | did not provide evidence of binding | stabilize individual HUWE1 substrates under certain conditions, such as MCL1 upon DNA damage induction | do not allow for in vivo applications | nor do they perturb the preceding Ub transfer from the E1 to the E2
NCc1cccc(CNc2ncnc3c(N4CCN(Cc5ccccc5)CC4)ncnc23)c1 [BI8626] | certain compound-directed activities were detected for all tested HECT domains | did not provide evidence of binding | did not provide evidence of binding | stabilize individual HUWE1 substrates under certain conditions, such as MCL1 upon DNA damage induction | do not allow for in vivo applications | nor do they perturb the preceding Ub transfer from the E1 to the E2
